Test results reported in patent publication US8883796B2, “Biphenyl derivatives, pharmaceutical composition comprising the same, and preparation method thereof” (Korea Institute of Science and Technology, priority 2013, dated 2014).

Biological target: T1, Human recombinant 5-HT7 receptor (Homo sapiens, UniProt P34969)
T1 construct: expressed in transfected cells; host or cells: CHO cells (membrane preparation)
Assay: Binding affinity for 5-HT7 serotonin receptor ([3H]LSD radioligand binding)
Settings: 1 nM [3H]LSD; human recombinant 5-HT7 receptor expressed in CHO cells; 25° C., 90 minutes
Method: % inhibition at 10 μM and binding affinity (Ki) of the novel compound represented by the Chemical Formula 1 according to the present disclosure for the 5-HT7 serotonin receptor were measured as follows.
Human recombinant 5-HT7 receptor expressed in CHO cells was used. A reaction mixture (final concentration 0.25 mL) prepared from 1 nM [^3H]LSD, 5-HT7 receptor membrane (15 μg/well), test compound of various concentrations and 50 mM Tris-HCl buffer (pH 7.4) containing 10 mM MgCl2 and 0.1 mM EDTA was incubated at 25° C. for 90 minutes. After the incubation, reaction was terminated by rapid filtration through Whatman GF/C glass fiber filter previously soaked in 0.3% polyethyleneimine using a Brandel harvester and washed with cold 50 mM Tris-HCl buffer. The filter was covered with MeltiLex, sealed in a sample bag and dried in an oven. Counting was carried out using MicroBeta (Wallac). Nonspecific binding was measured in the presence of 0.5 μM mianserin. The Ki value of the test compound was obtained from nonlinear regression analysis (GraphPad Prism Program, San Diego, USA) of isotherms obtained by repeating experiments 3 times in duplicate test tubes at 10-11 varied concentrations.
The % inhibition at 10 μM and binding affinity (Ki) of the novel compound according to the present disclosure for the 5-HT7 serotonin receptor are given in Table 1.

T1 sequence (P34969 whole entry): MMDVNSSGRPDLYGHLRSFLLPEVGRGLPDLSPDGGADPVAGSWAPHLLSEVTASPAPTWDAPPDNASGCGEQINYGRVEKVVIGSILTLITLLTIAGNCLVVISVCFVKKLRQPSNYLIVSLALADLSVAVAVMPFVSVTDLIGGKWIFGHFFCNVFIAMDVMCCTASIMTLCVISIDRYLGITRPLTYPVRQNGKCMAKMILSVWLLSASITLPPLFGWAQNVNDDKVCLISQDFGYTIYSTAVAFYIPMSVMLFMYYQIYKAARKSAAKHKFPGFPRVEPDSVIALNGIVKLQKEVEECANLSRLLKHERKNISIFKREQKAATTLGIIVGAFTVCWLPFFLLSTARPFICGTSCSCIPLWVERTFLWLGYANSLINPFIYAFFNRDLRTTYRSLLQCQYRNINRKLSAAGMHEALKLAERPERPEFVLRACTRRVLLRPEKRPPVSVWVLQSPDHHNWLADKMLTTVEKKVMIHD

| Structure (SMILES) | Ki [nM] |
| --- | --- |
| COc1ccccc1N1CCN(Cc2ccccc2-c2ccccc2)CC1 [Compound 8, 1-(biphenyl-2-ylmethyl)-4-(2-methoxyphenyl)piperazine] | 432 |
| Cc1cc(C)cc(N2CCN(Cc3ccccc3-c3ccccc3)CC2)c1 [Compound 22, 1-(biphenyl-2-ylmethyl)-4-(3,5-dimethylphenyl)piperazine] | 367 |
| Clc1ccccc1N1CCN(Cc2cccc(-c3ccccc3)c2)CC1 [Compound 38, 1-(biphenyl-3-ylmethyl)-4-(2-chlorophenyl)piperazine] | 66 |
| Fc1cccc(N2CCN(Cc3cccc(-c4ccccc4)c3)CC2)c1 [Compound 36, 1-(biphenyl-3-ylmethyl)-4-(3-fluorophenyl)piperazine] | 79 |
| CC(C)c1ccccc1N1CCN(Cc2ccccc2-c2ccccc2)CC1 [Compound 23, 1-(biphenyl-2-ylmethyl)-4-(2-isopropylphenyl)piperazine] | 274 |
| FC(F)(F)c1cccc(N2CCN(Cc3ccccc3-c3ccccc3)CC2)c1 [Compound 25, 1-(biphenyl-2-ylmethyl)-4-(3-(trifluoromethyl)phenyl)piperazine] | 64 |
| c1ccc(-c2ccccc2CN2CCN(c3ccccc3)CC2)cc1 [Compound 1, 1-(biphenyl-2-ylmethyl)-4-phenylpiperazine] | 537 |
| Cc1cccc(N2CCN(Cc3cccc(-c4ccccc4)c3)CC2)c1 [Compound 47, 1-(biphenyl-3-ylmethyl)-4-(3-methylphenyl)piperazine] | 15 |
| Cc1ccc(C)c(N2CCN(Cc3ccccc3-c3ccccc3)CC2)c1 [Compound 21, 1-(biphenyl-2-ylmethyl)-4-(2,5-dimethylphenyl)piperazine] | 658 |
| CCOc1ccccc1N1CCN(Cc2ccccc2-c2ccccc2)CC1 [Compound 9, 1-(biphenyl-2-ylmethyl)-4-(2-ethoxyphenyl)piperazine] | 192 |
| c1ccc(-c2ccccc2CN2CCN(c3ccccc3-c3ccccc3)CC2)cc1 [Compound 24, 1-(biphenyl-2-ylmethyl)-4-(biphenyl-2-yl)piperazine] | 256 |

Same assay, conditions: 10 μM test compound; 1 nM [3H]LSD; human recombinant 5-HT7 receptor expressed in CHO cells

| Structure (SMILES) | inhibition at 10 µM [%] |
| --- | --- |
| COc1ccccc1N1CCN(Cc2ccccc2-c2ccccc2)CC1 [Compound 8, 1-(biphenyl-2-ylmethyl)-4-(2-methoxyphenyl)piperazine] | 95.1 |
| Cc1cc(C)cc(N2CCN(Cc3ccccc3-c3ccccc3)CC2)c1 [Compound 22, 1-(biphenyl-2-ylmethyl)-4-(3,5-dimethylphenyl)piperazine] | 84 |
| Clc1ccccc1N1CCN(Cc2cccc(-c3ccccc3)c2)CC1 [Compound 38, 1-(biphenyl-3-ylmethyl)-4-(2-chlorophenyl)piperazine] | 88.3 |
| Fc1cccc(N2CCN(Cc3cccc(-c4ccccc4)c3)CC2)c1 [Compound 36, 1-(biphenyl-3-ylmethyl)-4-(3-fluorophenyl)piperazine] | 91.3 |
| CC(C)c1ccccc1N1CCN(Cc2ccccc2-c2ccccc2)CC1 [Compound 23, 1-(biphenyl-2-ylmethyl)-4-(2-isopropylphenyl)piperazine] | 87 |
| FC(F)(F)c1cccc(N2CCN(Cc3ccccc3-c3ccccc3)CC2)c1 [Compound 25, 1-(biphenyl-2-ylmethyl)-4-(3-(trifluoromethyl)phenyl)piperazine] | 95.9 |
| c1ccc(-c2ccccc2CN2CCN(c3ccccc3)CC2)cc1 [Compound 1, 1-(biphenyl-2-ylmethyl)-4-phenylpiperazine] | 59.7 |
| Cc1cccc(N2CCN(Cc3cccc(-c4ccccc4)c3)CC2)c1 [Compound 47, 1-(biphenyl-3-ylmethyl)-4-(3-methylphenyl)piperazine] | 95.4 |
| Cc1ccc(C)c(N2CCN(Cc3ccccc3-c3ccccc3)CC2)c1 [Compound 21, 1-(biphenyl-2-ylmethyl)-4-(2,5-dimethylphenyl)piperazine] | 93.8 |
| CCOc1ccccc1N1CCN(Cc2ccccc2-c2ccccc2)CC1 [Compound 9, 1-(biphenyl-2-ylmethyl)-4-(2-ethoxyphenyl)piperazine] | 86.2 |
| c1ccc(-c2ccccc2CN2CCN(c3ccccc3-c3ccccc3)CC2)cc1 [Compound 24, 1-(biphenyl-2-ylmethyl)-4-(biphenyl-2-yl)piperazine] | 93.8 |
